US10016414B2, “Modulation of ubiquitination of synaptic proteins for the treatment of neurodegenerative and psychiatric disorders” (UNIVERSITY OF MASSACHUSETTS, priority 2010, dated 2018)

Legend:
[1] = oral gavage, 100 mg/kg once daily; between 1-8 hours after administration (Zhang et al., 2011); cited from earlier work
[2] = system: surface GluA1 (AMPAR) in hippocampal neurons; assay: Aβ-induced AMPAR endocytosis: surface GluA1 in cultured hippocampal neurons; format: cell-based, rat; details: for GluA1 surface expression (GluA1 puncta normalized to SV2 puncta and to naïve cultures): 2 hrs, naïve 100%±4%, n=3
Method: A. Micrograph showing GluA2 surface expression upon Aβ treatment in the presence or absence of Nutlin-3. Rat hippocampal neurons were cultured, and treated with Aβ or Aβ together with either Nutlin-3 (5 μM) or HLI373 (15 μM) for 2 hours. The final concentration of Aβ was 0.3 ng/mL. Naïve and Nutlin-3 and HLI373 treatments, without Aβ treatment, were used as controls. Surface expression of AMPARs was measured by labeling the cultured neurons in vivo with an antibody to the AMPAR subunit GluA1, followed by confocal microscopy and immunofluorescence quantification by MetaMorph. The number of GluA1 puncta was normalized to SV2 puncta (a presynaptic marker) and to the value in control naïve cultures. […] Scale bar=5 μm. B. Bar graph showing quantification of the percentage of surface GluA1 in response to the various treatment described in A. Results are presented as mean±SEM.
Soluble amyloid beta (Aβ) peptides contribute directly to synapse loss and decreased dendritic spine density and glutamate receptors at the synapse. Moreover, Aβ has been reported to induce AMPAR internalization in cultured neurons. To evaluate the effect of Mdm2 inhibitors on this process, cultured rat hippocampal neurons were treated for 2 hrs with Aβ (or Aβ together with either Nutlin-3 (5 μM) or HLI-373 (15 μM). Aβ can be prepared from 7PA2 Chinese hamster ovary (CHO) cells stably expressing human amyloid precursor protein (APP)751 containing the V717 mutation (Walsh et al., 2005; Shankar et al., 2007; Shankar et al., 2011), and is also available commercially from, e.g., rPeptide (Bogart, G A). The concentration of Aβ in the hippocampal cultures was 0.3 ng/mL. Naïve and Nutlin-3 and HLI-373 treatments were used as controls. Surface expression of AMPARs was measured by labeling the cultured neurons in vivo with an antibody to the AMPAR subunit GluA1, followed by confocal microscopy and immunofluorescence quantification by MetaMorph. The number of GluA1 puncta was normalized to SV2 puncta (a presynaptic marker) and to the value in control naïve cultures (see FIGS. 8A and B).
Minimum inhibitor concentrations of Nutlin-3a or HLI-373, as well as any other Mdm2 inhibitor identified using the screens described supra, can be readily determined by using different ranges of inhibitor concentrations and assessing the effects of the particular concentrations on surface expression of AMPARs. Similar results are expected with other inhibitors of PSD-95 ubiquitination by Mdm2, such as PSD-95 inhibitors.

[3] = system: surface GluA2 (AMPAR) in hippocampal neurons; assay: NMDA-induced AMPAR endocytosis: surface GluA2 by antibody feeding in hippocampal cultures; format: cell-based, rat; details: inhibitor 5 μM for 30 min before NMDA 100 μM for 3 min, then 15 min; naïve 100%±9.47%; n=3
Method: A. Micrograph showing GluA2 surface expression upon NMDA treatment in the presence or absence of Nutlin-3. Cultured hippocampal neurons were subjected to an antibody feeding protocol using an antibody that recognizes an extracellular domain of GluA2. The neurons were subsequently pretreated with Nutlin-3 (5 μM for 30 min) prior to NMDA treatment (100 μM for 3 min), followed by agonist washout. Neurons were incubated for an additional 15 min (with or without Nutlin-3) before immunocytochemical analysis of PSD-95 and surface GluA2 by confocal microscopy.
B. A bar graph depicting the proportion of GluA2 found at the surface of cultured hippocampal neurons upon treatment with or without NMDA, in the presence or absence of Nutlin-3. Results are presented as mean±SEM.
Brief stimulation of NMDARs induces AMPAR endocytosis in cultured neurons (Colledge et al., 2003; Bhattacharyya et al., 2009). To determine whether Nutlin-3a antagonizes NMDA-induced AMPAR endocytosis, measured as loss of surface AMPAR staining, the surface expression of GluA2 (a subunit of AMPARs in rat hippocampal cultures) was assessed. Surface GluA2 were labeled in vivo by an antibody feeding protocol using an antibody that recognizes an extracellular domain of GluA2 (Ehlers, 2000; Lin et al., 2000; Bhattacharyya et al., 2009). Neurons were pretreated with Nutlin-3a (5 μM for 30 min) prior to NMDA treatment. After brief stimulation with NMDA (100 μM for 3 min) and agonist washout, neurons were incubated for an additional 15 min (with or without Nutlin-3a) before immunocytochemical analysis of PSD-95 and surface GluA2 by confocal microscopy under the same settings. Immunostained puncta were quantified using MetaMorph software (3 neurons from 2 coverslips with approximately 450 puncta analyzed/condition) and the number of GluA2 puncta was normalized to the number of PSD-95 puncta.
Naïve and NMDA-stimulated conditions were used as controls. […]

[4] = molecular target: T1, interaction between PSD-95 and Mdm2 (Mus musculus, UniProt P23804); assay: Mdm2 binding to PSD-95 in acute forebrain slices (Mdm2 immunoprecipitation, PSD-95 Western blot); format: cell-based; details: Nutlin-3 5 μM for 30 min, normalized to absence of Nutlin-3
T1 construct: from tissue; host or cells: acute mouse forebrain slices
T1 sequence (P23804 whole entry): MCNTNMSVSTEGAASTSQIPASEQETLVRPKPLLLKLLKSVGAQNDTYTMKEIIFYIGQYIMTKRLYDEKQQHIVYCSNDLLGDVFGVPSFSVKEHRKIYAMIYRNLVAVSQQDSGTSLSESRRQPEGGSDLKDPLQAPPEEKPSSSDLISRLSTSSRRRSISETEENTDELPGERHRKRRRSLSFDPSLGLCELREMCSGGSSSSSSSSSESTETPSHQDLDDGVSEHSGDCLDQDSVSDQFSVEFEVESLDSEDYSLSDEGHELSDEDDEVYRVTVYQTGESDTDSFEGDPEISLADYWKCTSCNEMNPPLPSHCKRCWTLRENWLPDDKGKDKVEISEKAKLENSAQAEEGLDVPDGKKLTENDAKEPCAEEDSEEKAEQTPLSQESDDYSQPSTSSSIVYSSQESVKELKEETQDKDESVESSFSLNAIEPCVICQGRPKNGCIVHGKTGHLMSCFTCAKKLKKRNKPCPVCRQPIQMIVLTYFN
Method: A. Immunoblot showing the interaction between Mdm2 and PSD-95 in the presence or absence of the Mdm2 inhibitor Nutlin-3. Acute mouse forebrain slices were treated with Nutlin-3 (5 μM for 30 min), followed by immunoprecipitation of Mdm2. Immunoprecipitates were subjected to Western blot analysis with anti-PSD-95 and anti-Mdm2 antibodies. IgG: control immunoprecipitation with mouse IgG.
B. A bar graph depicting the proportion of PSD-95 bound to Mdm2 from FIG. 6A, normalized to levels of PSD-95 bound to Mdm2 in the absence of Nutlin-3. There was a 60% decrease in the interaction of PSD-95 with Mdm2.
To test this hypothesis, acute mouse forebrain slices were prepared and subjected to treatment with or without Nutlin-3. The interaction between PSD95 and Mdm2 was assessed by immunoprecipitation of Mdm2, followed by Western blot analysis to assess the extent of PSD-95 binding. Consistent with PSD-95 binding to the same region of Mdm2 as other Mdm2 substrates, Nutlin-3 decreased the interaction between PSD-95 with Mdm2 by 60% (FIGS. 6A and B).

Row | Compound | concentration in brain tissue [1] | GluA1 surface expression (GluA1 puncta normalized to SV2 puncta and to naïve cultures) ([2]; co-treatment with Aβ 0.3 ng/mL, Nutlin 5 μM, HLI373 15 μM) | GluA2 surface expression (GluA2 puncta normalized to PSD-95 puncta, versus naïve control) [3] | decrease in the interaction of PSD-95 with Mdm2 [4] | effect on loss of surface GluA1 induced by Aβ ([2]; Aβ 0.3 ng/mL, 2 hours, Nutlin-3 5 μM, HLI373 15 μM) | GluA1 surface expression (GluA1 puncta normalized to SV2 puncta and to naïve cultures) ([2]; inhibitor alone, without Aβ, Nutlin-3 5 μM, HLI-373 15 μM)
1 | COc1ccc(C2=NC(c3ccc(Cl)cc3)C(c3ccc(Cl)cc3)N2C(=O)N2CCNC(=O)C2)c(OC(C)C)c1 (single isomer, unassigned; (-)) [Nutlin-3a, (−)-4-(4,5-bis(4-chlorophenyl)-2-(2-isopropoxy-4-methoxyphenyl)-4,5-dihydro-1H-imidazole-1-carbonyl)piperazin-2-one] | 1000 to 2000 nM | 152.29%±19.88% | – | – | – | –
2 | COc1ccc(C2=N[C@@H](c3ccc(Cl)cc3)[C@@H](c3ccc(Cl)cc3)N2C(=O)N2CCNC(=O)C2)c(OC(C)C)c1 [Nutlin-3] | – | – | 60.86±3.98% | 60% | prevented the loss of surface GluA1 induced by Aβ treatment | 90.6%±3.71%
